From article PMC11243058, “Identification of Novel Isatin Derivative Bearing a Nitrofuran Moiety as Potent Multi-Isoform Aldehyde Dehydrogenase Inhibitor” (Molecules, 2024)
Where two headings read alike, the source gives them in different places.

Assays:
[1] = Cell viability assay (MTS), statements over the cell line panel; format: cell-based, human; details: human; range or statement over all tested cell lines, 48 h MTS; read-out: IC50 / cytotoxicity against the tested cell lines
Protocol: (§1) Five thousand cells/well were plated in 96-well plates in growth media and left for attachment for 24 h. The cells were then treated with the respective compounds using varying concentrations for 48 h. At the end of the treatment duration, a solution of MTS [3-(4,5-dimethylthiazol-2-yl)-5-(3-carboxymethoxyphenyl)-2-(4-sulfophenyl)-2H-tetrazolium] and an electron coupling reagent, PES (phenazine ethosulfate) (Promega, Madison, WI, USA) was added to the cells. Then, 15 μL of MTS reagent was added to each well, and the absorbance was assessed at 490 nm with a microplate reader (Dynex Technologies, MRX Revelation; Chantilly, VA, USA) after 1 h incubation with MTS. The data were recorded, and the IC50 value was calculated using non-linear curve regression analysis (Graph pad V8.0, CA, USA).

ALDH1A1 = molecular target: T1, ALDH1A1 (Homo sapiens, UniProt P00352); assay: ALDH isoform-specific enzyme inhibition assay, ALDH1A1; format: biochemical; details: 500 nM, Acetaldehyde (Substrate)
T1 construct: purchased R&D systems
T1 sequence (P00352 1-501): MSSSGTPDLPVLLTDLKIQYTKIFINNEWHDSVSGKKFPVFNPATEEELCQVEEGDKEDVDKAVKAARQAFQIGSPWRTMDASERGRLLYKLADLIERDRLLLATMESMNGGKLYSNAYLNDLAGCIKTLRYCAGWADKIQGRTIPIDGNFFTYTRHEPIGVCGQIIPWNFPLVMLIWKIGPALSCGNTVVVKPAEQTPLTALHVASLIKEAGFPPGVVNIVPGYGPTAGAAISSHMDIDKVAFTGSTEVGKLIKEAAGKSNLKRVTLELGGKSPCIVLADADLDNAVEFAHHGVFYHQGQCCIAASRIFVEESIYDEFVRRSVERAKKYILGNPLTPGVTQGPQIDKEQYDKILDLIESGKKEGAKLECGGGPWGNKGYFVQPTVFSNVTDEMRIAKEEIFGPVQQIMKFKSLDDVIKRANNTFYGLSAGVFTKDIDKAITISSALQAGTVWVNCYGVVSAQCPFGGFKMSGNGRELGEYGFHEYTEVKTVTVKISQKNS
Protocol: (§2) ALDH1A1, ALDH3A1, and ALDH1A3 enzyme inhibition assays were performed as reported previously. Briefly, 500 ng/100 uL of ALDH1A1, ALDH3A1, and ALDH1A3 were treated with 500 nM concentration of the tested compounds and incubated for 15 min followed by the addition of reaction mixture (substrate + Substrate mixture). […] The absorbance was measured at 450 nm. [Absorbance Control–Absorbance treated/Absorbance Control]100 was used to compute the percentage of inhibition.

ALDH3A1 = molecular target: T2, ALDH3A1 (Homo sapiens, UniProt P30838); assay: ALDH isoform-specific enzyme inhibition assay, ALDH3A1; format: biochemical; details: 500 nM, Acetaldehyde (Substrate)
T2 construct: purchased R&D systems
T2 sequence (P30838 1-453): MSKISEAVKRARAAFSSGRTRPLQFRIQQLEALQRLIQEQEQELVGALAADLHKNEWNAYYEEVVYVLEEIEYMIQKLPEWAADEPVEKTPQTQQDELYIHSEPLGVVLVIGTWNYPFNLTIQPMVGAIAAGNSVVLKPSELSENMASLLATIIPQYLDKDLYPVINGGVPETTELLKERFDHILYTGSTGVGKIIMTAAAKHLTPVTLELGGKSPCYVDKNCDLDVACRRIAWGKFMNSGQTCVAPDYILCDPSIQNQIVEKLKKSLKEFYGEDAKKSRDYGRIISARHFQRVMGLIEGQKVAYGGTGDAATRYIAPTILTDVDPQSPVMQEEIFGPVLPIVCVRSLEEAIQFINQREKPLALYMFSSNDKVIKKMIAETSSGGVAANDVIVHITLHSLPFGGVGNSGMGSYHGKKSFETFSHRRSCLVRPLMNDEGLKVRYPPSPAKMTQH
Protocol: as §2

SKOV-3 = assay: Cell viability assay (MTS), SKOV-3; format: cell-based, human; details: Homo sapiens, SK-OV-3, ovarian cancer cells, 48 h, mean ± SD
Protocol: as §1

FHC = assay: Cell viability assay (MTS), FHC; format: cell-based; details: FHC, normal fetal human cells, 48 h, mean ± SD
Protocol: as §1

HEK-293 = assay: Cell viability assay (MTS), HEK-293; format: cell-based; details: HEK293, human embryonic kidney cells, 48 h, mean ± SD
Protocol: as §1

MiaPaCa-2 = assay: Cell viability assay (MTS), MiaPaCa-2; format: cell-based, human; details: Homo sapiens, MIA PaCa-2, pancreatic cancer cells, 48 h, mean ± SD
Protocol: as §1

HCT-116 = assay: Cell viability assay (MTS), HCT-116; format: cell-based, human; details: Homo sapiens, HCT-116, colon cancer cells, 48 h, mean ± SD
Protocol: as §1

UACC 903 cells = assay: ALDEFLUOR assay; format: cell-based, human; details: UACC 903 melanoma cells, 1 µM, 24 h
Protocol: Aldehyde dehydrogenase (ALDH) activity within human melanoma cells was assessed by utilizing the ALDEFLUOR Kit from […] Technologies. […] Post-treatment, cells were washed with PBS, and the ALDEFLUOR assay was performed following the manufacturer’s protocol, employing DEAB as a negative control. ALDH percentages were determined using a BD LSRFortessa flow cytometer (San Jose, CA, USA).

[2] = tested on: SKOV-3, MiaPaCa-2, HCT-116, HEK-293, and FHC cell lines; assay: Cell viability assay (MTS), statements over the cell line panel; format: cell-based, human; details: for IC50: Homo sapiens
Protocol: as §1

HCT-116 cells [3] = assay: ROS generation (Muse Oxidative Stress Kit); format: cell-based, human; details: HCT-116, 3 µM, 24 h, relative to KS100
Protocol: The Muse® Oxidative Stress Kit (Luminex Corp., Austin, TX, USA) was used to assess the generation of ROS in the HCT-116 cells after the treatment with the compounds. In a 6-well plate, the cells were seeded at a density of 1 × 10^5 cells/well. After 24 h incubation, the cells were treated with the respective compounds with or without 5 mM of N-acetylcysteine (NAC) in the serum-enriched medium for 24 h. At the end of the treatment duration, the cells were harvested, and 10 μL of cells in suspension was added into each tube. Furthermore, 190 μL of Muse Oxidative Stress Reagent working solution was added to each tube. The samples were mixed thoroughly by pipetting up and down or vortexing at medium speed for 3 to 5 s. The samples were incubated for 30 min at 37 °C and analyzed using Muse Cell Analyzer.

HCT-116 cells [4] = assay: Apoptosis assay, Annexin V/7-AAD; format: cell-based, human; details: HCT-116, 3 µM, 48 h, relative to KS100
Protocol: (§3) The apoptosis assays were carried out following the manufacturer’s instructions using the Muse Caspase-3/7 assay kit and Annexin V/7-AAD kit (Luminex Corp., TX, US). In a 6-well plate, the cells were seeded at a density of 1X105 cells/well. The cells were treated with 3 µM of the compounds following a 24 h incubation period. The cells were cultured for 48 h (Annexin V/7-AAD) as opposed to 24 h (Caspase-3/7 test). Cell Dissociation buffer, an enzyme-free solution, was used to harvest the cells at the end of the treatment period. The samples were then given the appropriate dye treatments following the manufacturer’s instructions.

HCT-116 cells [5] = assay: Apoptosis assay, Muse Caspase-3/7 7-AAD; format: cell-based, human; details: HCT-116, 3 µM, 24 h, relative to KS100
Protocol: as §3

γH2AX in HCT-116 cells = assay: Western blot for γH2AX; format: cell-based, human; details: HCT-116, 3 µM, 12 h
Protocol: Western blotting was performed as described previously. The antibodies used were procured from Cell Signaling Technologies. […] The protein was transferred to a 0.45 µm pore membrane (Immobilon®-P PVDF Membrane, EMD Millipore, USA). The membranes were further treated with the respective primary and secondary antibodies. The Western blot images are representative of three independent experiments.

HNSCC xenograft = details: injected intratumorally ref 29; cited from earlier work

Row | Compound | IC50 at 48 h [1] [µM] | inhibition at 0.5 µM (ALDH1A1) [%] | inhibition at 0.5 µM (ALDH3A1) [%] | IC50 (SKOV-3) [µM] | IC50 (FHC) [µM] | melting point [°C] | IC50 (HEK-293) [µM] | IC50 (MiaPaCa-2) [µM] | IC50 (HCT-116) [µM] | inhibition of overall ALDH activity (ALDEFLUOR) (UACC 903 cells) | IC50 ([2]; HEK293, FHC and HEK-293, 48 h MTS, read-out: IC50 in normal and embryonic kidney cells) [µM] | IC50 ([2]; Pancreatic cancer cell, ovarian, colon, and pancreatic cancer cells, 48 h MTS, read-out: IC50 in cancer cell lines) [µM] | greater effectiveness than KS100 in targeting cancer cells ([2]; from MTS IC50 values) [times] | more ROS than KS100 (HCT-116 cells [3]) [%] | more apoptotic cell population than KS100, Annexin V/7-AAD (HCT-116 cells [4]) | more apoptotic cell population than KS100, caspase-3/7 7-AAD (HCT-116 cells [5]) | γH2AX protein levels (γH2AX in HCT-116 cells) | IC50 ([2]; Pancreatic cancer cell, 48 h, read-out: IC50 in cancer cell lines) [µM] | reduction of HNSCC xenograft development (HNSCC xenograft) [%]
1 | Br.C=CCNC(=N)SCc1ccc(CN2C(=O)C(=O)c3cc(Br)cc(Br)c32)cc1 [Compound 1, 4-((5,7-Dibromo-2,3-dioxoindolin-1-yl)methyl)benzyl allylcarbamimidothioate hydrobromide] | 2.1 to 6.8 | 35.37 ± 0.01 | 30.59 ± 0.02 | 4.8 ± 0.2 | 2.9 ± 0.3 | 118 to 120 | 4.1 ± 0.8 | 2.4 ± 1.1 | 4.7 ± 1.1 | – | – | – | – | – | – | – | – | – | –
2 | COC(=O)/C=C/c1ccc(CN2C(=O)C(=O)c3cc(Br)cc(Br)c32)cc1 [Compound 2, Methyl (E)-3-(4-((5,7-dibromo-2,3-dioxoindolin-1-yl)methyl)phenyl)acrylate] | > 20 | – | – | 21.8 ± 2.4 | 22.9 ± 3.3 | – | 24.1 ± 6.8 | 22.3 ± 5.1 | 19.6 ± 3.3 | – | – | – | – | – | – | – | – | – | –
3 | O=C(OCc1ccc(CN2C(=O)C(=O)c3cc(Br)cc(Br)c32)cc1)c1ccc([N+](=O)[O-])o1 [Compound 3, 4-((5,7-Dibromo-2,3-dioxoindolin-1-yl)methyl)benzyl 5-nitrofuran-2-carboxylate] | 2.1 to 6.8 | 51.32 ± 0.01 | 51.87 ± 0.05 | 2.2 ± 0.2 | 7.1 ± 0.8 | – | 8.7 ± 1.1 | 3.8 ± 0.4 | 2.1 ± 0.1 | ~ 2.5 fold | 7.1 to 8.7 | 2.1 to 3.8 | 0.5 to 2 | 34.7 | ~ 13% | ~ 12.8% | increased γH2AX protein levels | – | –
4 | Br.N=C(N)SCc1ccc(Cn2nc(Br)c3cc(C(F)(F)F)ccc32)cc1 [Compound 16, 4-((3-Bromo-5-(trifluoromethyl)-1H-indazol-1-yl)methyl)benzyl carbamimidothioate hydrobromide] | 2.1 to 6.8 | 9.46 ± 0.01 | -9.33 ± 0.04 | 4 ± 1.3 | 7.1 ± 1.1 | 213 to 215 | 5.7 ± 1.3 | 6.8 ± 1.4 | 4.9 ± 1.1 | – | – | – | – | – | – | – | – | – | –
5 | Br.N=C(N)SCc1ccc(Cn2nc(Br)c3cccc(C(F)(F)F)c32)cc1 [Compound 17, 4-((3-Bromo-7-(trifluoromethyl)-1H-indazol-1-yl)methyl)benzyl carbamimidothioate hydrobromide] | – | 10.99 ± 0.0015 | -25.33 ± 0.05 | > 50 | > 50 | 235 to 237 | > 50 | > 50 | > 50 | – | – | – | – | – | – | – | – | > 50 | –
6 | CC(C)CCn1c(CN2CCN(C(=O)C3CC3)CC2)nc2c1c(=O)n(C)c(=O)n2C [NCT-501] | – | – | – | – | – | – | – | – | – | – | – | – | – | – | – | – | – | – | 78
